Results reported in patent US20150105252A1, “SUBSTITUTED PYRAZOLES AS HERBICIDES” (E I DU PONT DE NEMOURS AND COMPANY, priority 2013, published 2015).

Columns and labels:
[1] = test system: quackgrass; assay: Test E preemergence; assay type: in vivo, Elytrigia repens; conditions: 21 days, scale 0 to 100
Description: (§1) Seeds of plant species selected from bermudagrass (Cynodon dactylon), Surinam grass (Brachiaria decumbens), crabgrass, large (large crabgrass, Digitaria sanguinalis), crabgrass, naked (naked crabgrass, Digitaria nuda), foxtail, green (green foxtail, Setaria viridis), johnsongrass (Sorghum halepense), kochia (Kochia scoparia), morningglory (pitted morningglory, Ipomoea lacunosa), nutsedge, purple (purple nutsedge, Cyperus rotundus), ragweed (common ragweed, Ambrosia elation), mustard, black (black mustard, Brassica nigra), guineagrass (Panicum maximum), dallisgrass (Paspalum dilatatum), barnyardgrass (Echinochloa crus-galli), sandbur (southern sandbur, Cenchrus echinatus), sowthistle (common sowthistle, Sonchus oleraceous), ryegrass, Italian (Italian ryegrass, Lolium multiflorum), signalgrass (broadleaf signalgrass, Brachiaria platyphylla), dayflower, VA (Virginia (VA) dayflower, Commelina virginica), bluegrass (annual bluegrass, Poa annua), quackgrass (Elytrigia repens), mallow (common mallow, Malva sylvestris), buckwheat, wild (wild buckwheat, Polygonum convolvulus), leafy spurge (Euphorbia esula), common chickweed (Stellaria media), wild poinsettia (Euphorbia heterophylla), pigweed, palmer (palmer pigweed, Amaranthus palmeri), and pigweed (redroot pigweed, Amaranthus retroflexus) were planted into a blend of loam soil and sand and treated preemergence with test chemicals formulated in a non-phytotoxic solvent mixture which included a surfactant.
(§2) Treated plants and controls were maintained in a greenhouse for 21 days, after which time all species were compared to controls and visually evaluated. Plant response ratings, summarized in Table E, are based on a scale of 0 to 100 where 0 is no effect and 100 is complete control. A dash (-) response means no test result.

[2] = test system: barnyardgrass; assay: Test E preemergence; assay type: in vivo, Echinochloa crus-galli; conditions: 21 days, scale 0 to 100
Description: as §1, §2

[3] = test system: crabgrass, Brazil; assay: Test F postemergence; assay type: in vivo, Digitaria horizontalis; conditions: scale 0 to 100
Description: (§3) Seeds of plant species selected from corn (Zea mays), soybean (Glycine max), velvetleaf (Abutilon theophrasti), lambsquarters (Chenopodium album), wild poinsettia (Euphorbia heterophylla), pigweed, palmer (palmer pigweed, Amaranthus palmeri), common waterhemp (Amaranthus rudis), surinam grass (Brachiaria decumbens), large crabgrass (Digitaria sanguinalis), crabgrass, Brazil (Brazilian crabgrass, Digitaria horizontalis), fall panicum (Panicum dichotomiflorum), giant foxtail (Setaria faberii), green foxtail (Setaria viridis), goosegrass (Eleusine indica), johnsongrass (Sorghum halepense), common ragweed (Ambrosia elation), barnyardgrass (Echinochloa crus-galli), southern sandbur (Cenchrus echinatus), arrowleaf sida (Sida rhombifolia), Italian ryegrass (Lolium multiflorum), dayflower, VA (Virginia (VA) dayflower, Commelina virginica), field bindweed (Convolvulus arvensis), cocklebur (common cocklebur, Xanthium strumarium), morningglory (Ipomoea coccinea), nightshade (eastern black nightshade, Solanum ptycanthum), kochia (Kochia scoparia), yellow nutsedge (Cyperus esculentus), and hairy beggarticks (Bidens pilosa), were planted into a silt loam soil and treated preemergence with test chemicals formulated in a non-phytotoxic solvent mixture which included a surfactant.
(§4) At the same time, plants from these crop and weed species and also horseweed (Canada horseweed, Conyza canadensis), smartweed (ladysthumb smartweed, Polygonum persicaria), waterhemp_RES1, (ALS & Triazine resistant common waterhemp, Amaranthus rudis), and waterhemp_RES2, (ALS & HPPD resistant common waterhemp, Amaranthus rudis) were treated with postemergence applications of test chemicals formulated in the same manner. Plants ranged in height from 2 to 18 cm for postemergence treatments (1- to 4-leaf stage). Treated plants and controls were maintained in a greenhouse for 14 to 21 days, after which time all species were compared to controls and visually evaluated. Plant response ratings, summarized in Table F, are based on a scale of 0 to 100 where 0 is no effect and 100 is complete control. A dash (-) response means no test result.

[4] = test system: buckwheat, wild; assay: Test E preemergence; assay type: in vivo, Polygonum convolvulus; conditions: 21 days, scale 0 to 100
Description: as §1, §2

[5] = test system: nutsedge, purple; assay: Test E preemergence; assay type: in vivo, Cyperus rotundus; conditions: 21 days, scale 0 to 100
Description: as §1, §2

[6] = test system: crabgrass, naked; assay: Test E preemergence; assay type: in vivo, Digitaria nuda; conditions: 21 days, scale 0 to 100
Description: as §1, §2

[7] = test system: common ragweed; assay: Test F postemergence; assay type: in vivo, Ambrosia elation; conditions: scale 0 to 100
Description: as §3, §4

[8] = test system: morningglory; assay: Test E preemergence; assay type: in vivo, Ipomoea lacunosa; conditions: 21 days, scale 0 to 100
Description: as §1, §2

[9] = test system: barnyardgrass; assay: Test C flooded paddy test; assay type: in vivo, Echinochloa crus-galli; conditions: Flood
Procedure, shortened: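 Test compounds are applied straight into paddy water held 3 cm above the soil surface, with that flood maintained for the whole test. After 13 to 15 days in the greenhouse, each species is scored visually relative to controls.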

## CCc1cc(C(=O)NCC(F)(F)F)nn1Cc1ccnc(C(F)(F)F)c1 [Compound 78, 5-ethyl-N-(2,2,2-trifluoroethyl)-1-[[(2-trifluoromethyl)-4-pyridinyl]methyl]-1H-pyrazole-3-carboxamide]
[1]; 16 g ai/ha
  Plant response rating, Quackgrass: 60
[1]; 31 g ai/ha
  Plant response rating, Quackgrass: 95
[1]; 62 g ai/ha
  Plant response rating, Quackgrass: 100
[1]; 125 g ai/ha
  Plant response rating, Quackgrass: 100
[1]; 250 g ai/ha
  Plant response rating, Quackgrass: 100
[2]; 16 g ai/ha
  Plant response rating, Barnyardgrass: 35
[2]; 31 g ai/ha
  Plant response rating, Barnyardgrass: 95
[2]; 62 g ai/ha
  Plant response rating, Barnyardgrass: 100
[2]; 125 g ai/ha
  Plant response rating, Barnyardgrass: 100
[2]; 250 g ai/ha
  Plant response rating, Barnyardgrass: 100
[3]; Postemergence, 31 g ai/ha
  Plant response rating, Crabgrass, Brazil: 40
[3]; Postemergence, 125 g ai/ha
  Plant response rating, Crabgrass, Brazil: 70
[3]; Postemergence, 250 g ai/ha
  Plant response rating, Crabgrass, Brazil: 90
[3]; postemergence, 62 g ai/ha
  Plant response rating, Crabgrass, Brazil: 40
[3]; postemergence, 500 g ai/ha
  Plant response rating, Crabgrass, Brazil: 95
[4]; 16 g ai/ha
  Plant response rating, Buckwheat, Wild: 60
[4]; 31 g ai/ha
  Plant response rating, Buckwheat, Wild: 100
[4]; 62 g ai/ha
  Plant response rating, Buckwheat, Wild: 100
[4]; 125 g ai/ha
  Plant response rating, Buckwheat, Wild: 100
[4]; 250 g ai/ha
  Plant response rating, Buckwheat, Wild: 100
[5]; 16 g ai/ha
  Plant response rating, Nutsedge, Purple: 35
[5]; 31 g ai/ha
  Plant response rating, Nutsedge, Purple: 75
[5]; 62 g ai/ha
  Plant response rating, Nutsedge, Purple: 98
[5]; 125 g ai/ha
  Plant response rating, Nutsedge, Purple: 100
[5]; 250 g ai/ha
  Plant response rating, Nutsedge, Purple: 100
[6]; 31 g ai/ha
  Plant response rating, Crabgrass, Naked: 95
[6]; 62 g ai/ha
  Plant response rating, Crabgrass, Naked: 95
[6]; 125 g ai/ha
  Plant response rating, Crabgrass, Naked: 100
[6]; 250 g ai/ha
  Plant response rating, Crabgrass, Naked: 100
[7]; Postemergence, 31 g ai/ha
  Plant response rating, Common Ragweed: 65
[7]; Postemergence, 125 g ai/ha
  Plant response rating, Common Ragweed: 70
[7]; Postemergence, 250 g ai/ha
  Plant response rating, Common Ragweed: 80
[7]; postemergence, 62 g ai/ha
  Plant response rating, Common Ragweed: 50
[7]; postemergence, 500 g ai/ha
  Plant response rating, Common Ragweed: 95
[8]; 16 g ai/ha
  Plant response rating, Morningglory: 50
[8]; 31 g ai/ha
  Plant response rating, Morningglory: 70
[8]; 62 g ai/ha
  Plant response rating, Morningglory: 90
[8]; 125 g ai/ha
  Plant response rating, Morningglory: 100
[8]; 250 g ai/ha
  Plant response rating, Morningglory: 100

## CCc1cc(C(=O)NC(C)C)nn1Cc1ccnc(C(F)(F)F)c1 [Compound 103]
[1]; 16 g ai/ha
  Plant response rating, Quackgrass: 95
[1]; 31 g ai/ha
  Plant response rating, Quackgrass: 98
[1]; 62 g ai/ha
  Plant response rating, Quackgrass: 100
[1]; 125 g ai/ha
  Plant response rating, Quackgrass: 100
[1]; 250 g ai/ha
  Plant response rating, Quackgrass: 100
[2]; 16 g ai/ha
  Plant response rating, Barnyardgrass: 90
[2]; 31 g ai/ha
  Plant response rating, Barnyardgrass: 100
[2]; 62 g ai/ha
  Plant response rating, Barnyardgrass: 100
[2]; 125 g ai/ha
  Plant response rating, Barnyardgrass: 100
[2]; 250 g ai/ha
  Plant response rating, Barnyardgrass: 100
[4]; 16 g ai/ha
  Plant response rating, Buckwheat, Wild: 95
[4]; 31 g ai/ha
  Plant response rating, Buckwheat, Wild: 100
[4]; 62 g ai/ha
  Plant response rating, Buckwheat, Wild: 100
[4]; 125 g ai/ha
  Plant response rating, Buckwheat, Wild: 100
[4]; 250 g ai/ha
  Plant response rating, Buckwheat, Wild: 100
[5]; 16 g ai/ha
  Plant response rating, Nutsedge, Purple: 15
[5]; 31 g ai/ha
  Plant response rating, Nutsedge, Purple: 75
[5]; 62 g ai/ha
  Plant response rating, Nutsedge, Purple: 90
[5]; 125 g ai/ha
  Plant response rating, Nutsedge, Purple: 98
[5]; 250 g ai/ha
  Plant response rating, Nutsedge, Purple: 100
[6]; 16 g ai/ha
  Plant response rating, Crabgrass, Naked: 100
[6]; 31 g ai/ha
  Plant response rating, Crabgrass, Naked: 100
[6]; 62 g ai/ha
  Plant response rating, Crabgrass, Naked: 100
[6]; 125 g ai/ha
  Plant response rating, Crabgrass, Naked: 100
[6]; 250 g ai/ha
  Plant response rating, Crabgrass, Naked: 100
[8]; 16 g ai/ha
  Plant response rating, Morningglory: 95
[8]; 31 g ai/ha
  Plant response rating, Morningglory: 100
[8]; 62 g ai/ha
  Plant response rating, Morningglory: 100
[8]; 125 g ai/ha
  Plant response rating, Morningglory: 100
[8]; 250 g ai/ha
  Plant response rating, Morningglory: 100

## CCCNC(=O)c1cc(CCCl)n(Cc2ccnc(C(F)(F)F)c2)n1 [Compound 145]
[9]; 31 g ai/ha, scale 0 to 100 (0 no effect, 100 complete control)
  Plant response rating, Barnyardgrass: 0
[9]; 62 g ai/ha, scale 0 to 100 (0 no effect, 100 complete control)
  Plant response rating, Barnyardgrass: 0
[9]; 125 g ai/ha, scale 0 to 100
  Plant response rating, Barnyardgrass: 30
[9]; 250 g ai/ha, scale 0 to 100
  Plant response rating, Barnyardgrass: 40

## CCOc1cc(C(=O)NC(C)C)nn1Cc1ccnc(C(F)(F)F)c1 [Compound 188]
[3]; Postemergence, 31 g ai/ha
  Plant response rating, Crabgrass, Brazil: 20
[3]; Postemergence, 125 g ai/ha
  Plant response rating, Crabgrass, Brazil: 75
[3]; Postemergence, 250 g ai/ha
  Plant response rating, Crabgrass, Brazil: 90
[3]; postemergence, 62 g ai/ha
  Plant response rating, Crabgrass, Brazil: 30
[3]; postemergence, 500 g ai/ha
  Plant response rating, Crabgrass, Brazil: 95
[7]; Postemergence, 31 g ai/ha
  Plant response rating, Common Ragweed: 50
[7]; Postemergence, 125 g ai/ha
  Plant response rating, Common Ragweed: 70
[7]; Postemergence, 250 g ai/ha
  Plant response rating, Common Ragweed: 85
[7]; postemergence, 62 g ai/ha
  Plant response rating, Common Ragweed: 60
[7]; postemergence, 500 g ai/ha
  Plant response rating, Common Ragweed: 98
